# Biological target: T1, mouse TRPM3α2 (mTRPM3) ion channel (Mus musculus, UniProt J9SQF3)
# T1 construct: expressed in transfected cells; host or cells: flip-in HEK293
# Experiment: TRPM3 ion channel driven Ca2+ uptake, Fluo-4 AM assay, PS-stimulated (mTRPM3)
# Assay type: cell-based
# Conditions: TRPM3 overexpressing flip-in HEK293 cells stimulated with Pregnenolone sulfate (PS) 50 μM, activity ranges A, B, C
# Experimental: Monitoring the TRPM3 Ion Channel Driven Ca^2+ Uptake.
# In order to monitor the inhibition of the mouse TRPM3α2 (mTRPM3) ion channel by the compounds of the invention, a cellular system making use of an mTRPM3alpha2 or hTRPM3 overexpressing cell line (flip-in HEK293) was used. The TRPM3 channel was stimulated/opened with Pregnenolone sulfate (PS) (50 μM) which results in Ca^2+ influx.
# For mTRPM3, the intracellular Ca^2+ was measured with a Calcium responsive dye, Fluor-4 AM ester (Invitrogen). Cells were cultured until a confluence of 80-90%, washed with Versene (Invitrogen) and detached from the surface by a short incubation with 0.05% Trypsin (Invitrogen). The trypsination process was stopped by the addition of complete cell culture medium (DMEM, glutamax, 10% FCS, NEAA, Pen-Strep). Cells were collected and resuspended in Krebs buffer without Calcium at RT.
# Prior the cell seeding (±2000 cells/well into a black, 384 well plate (Greiner)) the diluted compound was added in the assay plate, together with the PS dissolved in Krebs buffer containing Calcium. […] Directly after cell addition the plates were read on an Envision fluorescence reader (Perkin Elmer) by an Excitation of 485 nm and emission at 535 nm.
# Channel inhibition was calculated compared to a non-PS stimulated control versus a condition stimulated with PS (50 μM) with vehicle. The ability of the compounds of the invention to inhibit this activity was determined as: Percentage inhibition=[1−((RFU determined for sample with test compound present−RFU determined for sample with positive control inhibitor) divided by (RFU determined in the presence of vehicle−RFU determined for sample with positive control inhibitor))]*100.
# The activities of the Example compounds tested are depicted in the table below.
# T1 sequence (J9SQF3 1-1709 isoform J9SQF3-12): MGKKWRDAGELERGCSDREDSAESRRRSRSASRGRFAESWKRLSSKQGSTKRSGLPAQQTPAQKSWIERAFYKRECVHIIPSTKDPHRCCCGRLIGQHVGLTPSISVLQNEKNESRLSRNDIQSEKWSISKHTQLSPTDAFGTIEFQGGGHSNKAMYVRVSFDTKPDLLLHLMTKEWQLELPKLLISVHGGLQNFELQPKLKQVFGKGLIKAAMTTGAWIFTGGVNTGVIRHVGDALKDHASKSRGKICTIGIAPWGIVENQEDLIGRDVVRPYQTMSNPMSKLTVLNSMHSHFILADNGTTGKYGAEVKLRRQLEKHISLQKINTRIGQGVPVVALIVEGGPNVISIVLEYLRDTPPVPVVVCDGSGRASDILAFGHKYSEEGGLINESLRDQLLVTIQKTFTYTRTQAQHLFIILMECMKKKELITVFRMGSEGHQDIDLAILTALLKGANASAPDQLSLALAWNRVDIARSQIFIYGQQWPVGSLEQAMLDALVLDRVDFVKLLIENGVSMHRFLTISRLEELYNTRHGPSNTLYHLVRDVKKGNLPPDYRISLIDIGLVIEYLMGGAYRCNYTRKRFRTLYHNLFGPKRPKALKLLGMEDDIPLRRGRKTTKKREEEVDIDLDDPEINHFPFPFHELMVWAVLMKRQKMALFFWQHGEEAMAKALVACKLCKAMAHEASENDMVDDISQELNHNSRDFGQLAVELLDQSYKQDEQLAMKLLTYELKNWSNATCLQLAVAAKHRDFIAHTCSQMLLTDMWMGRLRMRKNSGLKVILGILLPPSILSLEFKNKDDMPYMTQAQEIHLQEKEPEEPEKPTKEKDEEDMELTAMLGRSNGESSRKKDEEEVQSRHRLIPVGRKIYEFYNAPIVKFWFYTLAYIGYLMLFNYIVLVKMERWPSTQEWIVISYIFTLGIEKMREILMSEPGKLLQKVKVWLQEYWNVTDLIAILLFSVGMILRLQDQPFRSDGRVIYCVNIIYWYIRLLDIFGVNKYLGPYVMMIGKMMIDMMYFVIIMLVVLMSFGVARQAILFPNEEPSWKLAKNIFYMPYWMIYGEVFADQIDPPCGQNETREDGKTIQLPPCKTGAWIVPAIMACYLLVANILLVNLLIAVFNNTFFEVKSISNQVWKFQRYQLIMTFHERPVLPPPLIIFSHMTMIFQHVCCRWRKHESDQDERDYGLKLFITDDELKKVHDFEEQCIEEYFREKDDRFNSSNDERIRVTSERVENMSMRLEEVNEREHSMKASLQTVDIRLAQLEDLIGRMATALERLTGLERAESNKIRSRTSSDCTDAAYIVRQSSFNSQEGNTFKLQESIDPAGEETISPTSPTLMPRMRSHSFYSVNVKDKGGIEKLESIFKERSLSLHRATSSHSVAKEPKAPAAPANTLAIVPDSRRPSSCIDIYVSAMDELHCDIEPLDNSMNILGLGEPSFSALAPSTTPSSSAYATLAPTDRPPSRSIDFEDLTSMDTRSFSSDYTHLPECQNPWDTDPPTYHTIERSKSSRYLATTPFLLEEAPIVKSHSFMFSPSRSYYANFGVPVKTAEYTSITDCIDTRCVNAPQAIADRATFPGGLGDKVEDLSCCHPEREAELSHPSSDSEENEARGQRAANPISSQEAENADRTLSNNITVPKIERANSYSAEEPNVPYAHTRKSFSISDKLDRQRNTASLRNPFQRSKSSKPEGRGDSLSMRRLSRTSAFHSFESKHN
row,IC50 [nM],SMILES
1,< 1000,"Cc1oc2ccc(OCc3ccccc3F)cc2c1C(=O)NC1(CO)CCOCC1 [Cpd 197, 5-((2-fluorobenzyl)oxy)-N-(4-(hydroxymethyl)tetrahydro-2H-pyran-4-yl)-2-methylbenzofuran-3-carboxamide]"
2,> 20000,"Cc1oc2ccc(OCc3ccccc3)cc2c1C(=O)NC1CCC(C)CC1 (stereo not shown) [Cpd 106, 5-(benzyloxy)-2-methyl-N-(4-methylcyclohexyl)benzofuran-3-carboxamide]"
3,< 1000,"Cc1oc2ccc(OCc3ccccc3)cc2c1C(=O)N[C@H]1CCNC1 [Cpd 049, (S)-5-(benzyloxy)-2-methyl-N-(pyrrolidin-3-yl)benzofuran-3-carboxamide]"
4,> 20000,"Cc1oc2ccc(OCc3ccccc3N3CCN(C)CC3)cc2c1C(=O)NC1CCNC1=O (stereo not shown) [Cpd 245, 2-methyl-5-((2-(4-methylpiperazin-1-yl)benzyl)oxy)-N-(2-oxopyrrolidin-3-yl)benzofuran-3-carboxamide]"
5,> 20000,"Cc1oc2ccc(OC(C)c3ccccc3C(F)(F)F)cc2c1C(=O)N[C@H]1CCN(C(=O)OC(C)(C)C)C1 (mixture of isomers) [Cpd 267, rac-tert-butyl (3R)-3-(2-methyl-5-(1-(2-(trifluoromethyl)phenyl)ethoxy)benzofuran-3-carboxamido)pyrrolidine-1-carboxylate]"
6,< 1000,"Cc1oc2ccc(OCc3ccccc3)cc2c1C(=O)N[C@H]1CC[C@H](O)CC1 [Cpd 124, 5-(benzyloxy)-N-(trans-4-hydroxycyclohexyl)-2-methylbenzofuran-3-carboxamide]"
7,< 1000,"Cc1oc2ccc(OCc3c(F)cccc3F)cc2c1C(=O)NC1CCNCC1(F)F (stereo not shown) [Cpd 226, 5-((2,6-difluorobenzyl)oxy)-N-(3,3-difluoropiperidin-4-yl)-2-methylbenzofuran-3-carboxamide]"
8,< 1000,"Cc1oc2ccc(OCc3ccc(F)cc3F)cc2c1C(=O)N[C@@H](CO)C(N)=O [Cpd 340, (S)—N-(1-amino-3-hydroxy-1-oxopropan-2-yl)-5-((2,4-difluorobenzyl)oxy)-2-methylbenzofuran-3-carboxamide]"
9,1000 to 20000,"Cc1oc2ccc(OCc3ccccc3)cc2c1C(=O)NCc1cnccn1 [Cpd 102, 5-(benzyloxy)-2-methyl-N-(pyrazin-2-ylmethyl)benzofuran-3-carboxamide]"
10,< 1000,"Cc1oc2ccc(OCc3ccccc3)cc2c1C(=O)N[C@H]1CC[C@@H](O)CC1 [Cpd 125, 5-(benzyloxy)-N-(cis-4-hydroxycyclohexyl)-2-methylbenzofuran-3-carboxamide]"
11,< 1000,"Cc1oc2ccc(OCc3ccccc3)cc2c1C(=O)N[C@H]1CCN(C)C1 [Cpd 079, (S)-5-(benzyloxy)-2-methyl-N-(1-methylpyrrolidin-3-yl)benzofuran-3-carboxamide]"
12,1000 to 20000,"Cc1oc2ccc(OCc3ccccc3)cc2c1C(=O)NC1CCN(C)C(=O)C1 (stereo not shown) [Cpd 146, 5-(benzyloxy)-2-methyl-N-(1-methyl-2-oxopiperidin-4-yl)benzofuran-3-carboxamide]"
13,1000 to 20000,"Cc1oc2ccc(OCc3cccc(F)c3F)cc2c1C(=O)N[C@H]1CCN(C(=O)OC(C)(C)C)C1 [Cpd 256, tert-butyl (S)-3-(5-((2,3-difluorobenzyl)oxy)-2-methylbenzofuran-3-carboxamido)pyrrolidine-1-carboxylate]"
14,< 1000,"Cc1oc2ccc(OCc3ccccc3S(C)(=O)=O)cc2c1C(=O)NC1CCNCC1(F)F (single isomer, unassigned) [Cpd 333-En 2, N-(3,3-difluoropiperidin-4-yl)-2-methyl-5-((2-(methylsulfonyl)benzyl)oxy)benzofuran-3-carboxamide]"
15,> 20000,"Cc1oc2ccc(OCc3ccc(C(F)(F)F)cc3)cc2c1C(=O)O [Cpd 026, 2-methyl-5-((4-(trifluoromethyl)benzyl)oxy)benzofuran-3-carboxylic acid]"
16,> 20000,"Cc1oc2ccc(OCc3ccccc3)cc2c1C(=O)NS(=O)(=O)C(F)(F)F [Cpd 195, 5-(benzyloxy)-2-methyl-N-((trifluoromethyl)sulfonyl)benzofuran-3-carboxamide]"
17,1000 to 20000,"Cc1oc2ccc(OCc3ccc(F)cc3Cl)cc2c1C(=O)O [Cpd 022, 5-((2-chloro-4-fluorobenzyl)oxy)-2-methylbenzofuran-3-carboxylic acid]"
18,< 1000,"Cc1oc2ccc(OCc3ccccc3)cc2c1C(=O)N[C@H]1CCCNC1=O [Cpd 109, (S)-5-(benzyloxy)-2-methyl-N-(2-oxopiperidin-3-yl)benzofuran-3-carboxamide]"

row,IC50 [nM],SMILES
1,> 20000,"Cc1oc2cc(C#N)c(OCc3ccccc3)cc2c1C(=O)NC1CNCC1(F)F (single isomer, unassigned) [Cpd 301-En 2, 5-(benzyloxy)-6-cyano-N-(4,4-difluoropyrrolidin-3-yl)-2-methylbenzofuran-3-carboxamide]"
2,< 1000,"Cc1oc2ccc(OCc3ccccc3)cc2c1C(=O)NCC1(N(C)C)CCCC1 [Cpd 187, 5-(benzyloxy)-N-((1-(dimethylamino)cyclopentyl)methyl)-2-methylbenzofuran-3-carboxamide]"
3,1000 to 20000,"CCCNC(=O)c1c(C)oc2ccc(OCc3ccccc3)cc12 [Cpd 040, 5-(benzyloxy)-2-methyl-N-propylbenzofuran-3-carboxamide]"
4,< 1000,"Cc1oc2ccc(OCc3ccccc3)cc2c1C(=O)N[C@H]1C[C@@H](O)C1 [Cpd 054, 5-(benzyloxy)-N-(cis-3-hydroxycyclobutyl)-2-methylbenzofuran-3-carboxamide]"
5,> 20000,"Cc1oc2ccc(OCc3ccccc3)cc2c1C(=O)N1CCN(C)CC1 [Cpd 072, (5-(benzyloxy)-2-methylbenzofuran-3-yl)(4-methylpiperazin-1-yl)methanone]"
6,1000 to 20000,"Cc1oc2ccc(OCc3ccccc3)cc2c1C(=O)NC1CN(C(=O)OC(C)(C)C)C1 [Cpd 228, tert-butyl 3-(5-(benzyloxy)-2-methylbenzofuran-3-carboxamido)azetidine-1-carboxylate]"
7,< 1000,"Cc1oc2ccc(OCc3ccccc3)cc2c1C(=O)NC1CCN(C)CC1 [Cpd 117, 5-(benzyloxy)-2-methyl-N-(1-methylpiperidin-4-yl)benzofuran-3-carboxamide]"
8,> 20000,"Cc1oc2ccc(OCc3ccccc3)cc2c1C(=O)NC1CCCN(C(=O)OC(C)(C)C)C1 (stereo not shown) [Cpd 247, tert-butyl 3-(5-(benzyloxy)-2-methylbenzofuran-3-carboxamido)piperidine-1-carboxylate]"
9,> 20000,"Cc1oc2ccc(OCc3ccccc3)cc2c1C(=O)N1CCC(N)CC1 [Cpd 073, (4-aminopiperidin-1-yl)(5-(benzyloxy)-2-methylbenzofuran-3-yl)methanone]"
10,> 20000,"Cc1oc2ccc(OCc3ccccc3S(C)(=O)=O)cc2c1C(=O)NC1CCN(C)CC1 [Cpd 242, 2-methyl-N-(1-methylpiperidin-4-yl)-5-((2-(methylsulfonyl)benzyl)oxy)benzofuran-3-carboxamide]"
11,1000 to 20000,"Cc1oc2ccc(OCc3cccc(C(F)(F)F)c3)cc2c1C(=O)NC1CCN(C)CC1 [Cpd 232, 2-methyl-N-(1-methylpiperidin-4-yl)-5-((3-(trifluoromethyl)benzyl)oxy)benzofuran-3-carboxamide]"
12,< 1000,"COc1ccccc1COc1ccc2oc(C)c(C(=O)NC3CCNC3=O)c2c1 (stereo not shown) [Cpd 164, 5-((2-methoxybenzyl)oxy)-2-methyl-N-(2-oxopyrrolidin-3-yl)benzofuran-3-carboxamide]"
13,< 1000,Cc1oc2ccc(OCc3ccccc3F)cc2c1C(=O)N[C@@H]1COC[C@H]1O (relative stereo) [Cpd 330-En 2]
14,< 1000,"Cc1oc2ccc(OCc3ccccc3)cc2c1C(=O)NC1(CO)CCOCC1 [Cpd 167, 5-(benzyloxy)-N-(4-(hydroxymethyl)tetrahydro-2H-pyran-4-yl)-2-methylbenzofuran-3-carboxamide]"
15,1000 to 20000,"CC(=O)N1CC[C@H](NC(=O)c2c(C)oc3ccc(OCc4ccccc4)cc23)C1 [Cpd 145, (S)—N-(1-acetylpyrrolidin-3-yl)-5-(benzyloxy)-2-methylbenzofuran-3-carboxamide]"
16,1000 to 20000,"CCN1CCC[C@H]1CNC(=O)c1c(C)oc2ccc(OCc3ccccc3)cc12 [Cpd 152, (S)-5-(benzyloxy)-N-((l-ethylpyrrolidin-2-yl)methyl)-2-methylbenzofuran-3-carboxamide]"
17,< 1000,"Cc1oc2ccc(OCc3ccccc3F)cc2c1C(=O)NC(C)CO (single isomer, unassigned) [Cpd 328-En 2]"

row,SMILES,IC50 [nM]
1,"Cc1oc2ccc(OCc3ccccc3)cc2c1C(=O)N[C@H]1C[C@H]2CC[C@@H](C1)N2C [Cpd 183, 5-(benzyloxy)-2-methyl-N-((1R,3r,5S)-8-methyl-8-azabicyclo[3.2.1]octan-3-yl)benzofuran-3-carboxamide]",< 1000
2,"Cc1oc2ccc(OCc3ccccc3)cc2c1C(=O)N[C@H]1C[C@H]2CC[C@@H](C1)N2 [Cpd 143, 5-(benzyloxy)-N-((1R,3r,5S)-8-azabicyclo[3.2.1]octan-3-yl)-2-methylbenzofuran-3-carboxamide]",< 1000

# Reference: US20230391739A1, “ARYL DERIVATIVES FOR TREATING TRPM3 MEDIATED DISORDERS” (Katholieke Universiteit Leuven, priority 2020, published 2023)
